# Assays:
# Type in all cases: physicochemical
# [1] = Slurry experiments in various solvents (polymorph screen)
# Method: Slurry experiments in various solvents were performed. Approximately 30-80 mg of the starting solid (a non-stoichiometric hydrate of Form 1 having between […] and about 20% by weight water) was slurried in 39 different solvents (pure and binary solvents; the ratio of organic solvent/water (V/V) was […]) at RT and 50° C. for 5 days. Three solvates, one non-stoichiometric hydrate, and eleven non-solvated forms were identified. […] XRD of both wet and dry samples were scanned (FIG. 12A (dry sample)).
# The slurry experiments identified 3 solvated forms from wet samples (Solvates 1, 2, and 3); 2 non-stoichiometric hydrates of Form 1 (Forms 12 and 13); and 11 non-solvated forms (Forms 1-11). In some instances, similar XRD scans with minor differences were obtained. These were considered to be part of the same class (e.g., the same form). For example, XRD scans of Form 2 and Form 2* were similar and were considered to belong to the same class. The solvated forms were obtained from wet sample analysis; after drying, the sample indicated a different XRD.
# Solvate 1 was obtained from acetone at RT, and after drying, a low crystallinity solid was generated. Solvate 2 was obtained from acetone (at RT) and acetone/water (at RT), and after drying, Form 4** was generated. Solvate 3 was obtained from EtOH/water at RT, and after drying, Form 2 was generated.
# [2] = Dynamic vapor sorption (DVS) scan; conditions: at 90% RH
# From the text: The purity of the Form 13 sample was 98.8%; the KF of an undried Form 13 sample was 35.7%.
# [3] = Competitive slurry experiments between polymorph forms (thermodynamic stability); conditions: water at RT and 50° C.; slurried 3-5 days, XRD
# Method: In order to find out the thermodynamic stability between the different forms, several competitive slurry experiments were carried out. Form 1, Form 2, Form 2*, Form 3, Form 4, Form 4*, Form 4**, Form 5, Form 7, Form 8, Form 9, Form 10, Form 11, Form 11*, and Form 13 (10 mg for each) was mixed and slurried in 2 mL of solvent at both RT and 50° C. The solids were slurried for 3-5 days and then analyzed by XRD.
# In order to find out the thermodynamic stability between Form 13 and Form 9, several competitive slurry experiments were carried out. 15 mg of Form 1, Form 9 and Form 13 solid were mixed in 1 mL of toluene, IPAc, and n-butyl acetate, and slurried for 3 days at RT and 50° C.
# The residual solid was analyzed by XRD.
# [4] = slurry in Acetonitrile/water (5% water), 50° C.
# [5] = slurry in DCM/water (5% water), 50° C.
# [6] = slurry in DCM/water (5% water), RT
# [7] = slurry in Heptane/water (5% water), 50° C.
# [8] = slurry in Heptane/water (5% water), RT
# [9] = slurry in IPAc/water (5% water), 50° C.
# [10] = slurry in MA/water (5% water), RT
# [11] = slurry in MIBK/water (5% water), 50° C.
# [12] = slurry in MeOH/water (5% water), 50° C.
# [13] = slurry in MtBE/water (5% water), 50° C.
# [14] = slurry in Toluene/water (5% water), 50° C.
# [15] = slurry in Toluene/water (5% water), RT
# [16] = slurry in n-Butanol/water (5% water), 50° C.
# [17] = slurry in n-Butanol/water (5% water), RT
# [18] = slurry in n-Butyl acetate/water (5% water), 50° C.
# [19] = slurry in n-Butyl acetate/water (5% water), RT
structure (smiles),measurement,setting,value
CC(C)CC(=O)Nc1cncc(-c2ccc3[nH]nc(-c4nc5c(-c6cccc(F)c6)cncc5[nH]4)c3c2)c1 [Form 13],"Form, Dry",[1]; [4],Form 13
same,"Form, Wet",[1]; [4],Form 13
same,"Form, Dry","[1]; slurry in DCM, 50° C.",Form 13
same,"Form, Wet","[1]; slurry in DCM, 50° C.",Form 13
same,"Form, Dry",[1]; [5],Form 1
same,"Form, Wet",[1]; [5],Form 13
same,"Form, Dry",[1]; [6],Form 1
same,"Form, Wet",[1]; [6],Form 13
same,"Form, Dry","[1]; slurry in Heptane, 50° C.",Form 13
same,"Form, Wet","[1]; slurry in Heptane, 50° C.",Form 13
same,"Form, Dry",[1]; [7],Form 1
same,"Form, Wet",[1]; [7],Form 13
same,"Form, Dry",[1]; [8],Form 12
same,"Form, Wet",[1]; [8],Form 13
same,"Form, Dry",[1]; [9],Form 13
same,"Form, Wet",[1]; [9],Form 13
same,"Form, Dry",[1]; [10],Form 1
same,"Form, Wet",[1]; [10],Form 13
same,"Form, Dry",[1]; [11],Form 1
same,"Form, Wet",[1]; [11],Form 13
same,"Form, Dry","[1]; slurry in MeOH, RT",Form 1
same,"Form, Wet","[1]; slurry in MeOH, RT",Form 13
same,"Form, Dry",[1]; [12],Form 13
same,"Form, Wet",[1]; [12],Form 13
same,"Form, Dry",[1]; [13],Form 13
same,"Form, Wet",[1]; [13],Form 13
same,"Form, Dry",[1]; [14],Form 13
same,"Form, Wet",[1]; [14],Form 13
same,"Form, Dry",[1]; [15],Form 1
same,"Form, Wet",[1]; [15],Form 13
same,"Form, Dry",[1]; [16],Form 1
same,"Form, Wet",[1]; [16],Form 13
same,"Form, Dry",[1]; [17],Form 13
same,"Form, Wet",[1]; [17],Form 13
same,"Form, Dry",[1]; [18],Form 1
same,"Form, Wet",[1]; [18],Form 13
same,"Form, Dry",[1]; [19],Form 12
same,"Form, Wet",[1]; [19],Form 13
same,"Form, Dry","[1]; slurry in water, 50° C.",Form 13
same,"Form, Wet","[1]; slurry in water, 50° C.",Form 13
same,"Form, Dry","[1]; slurry in water, RT",Form 1
same,"Form, Wet","[1]; slurry in water, RT",Form 13
same,water absorption (DVS scan),[2],17%
same,thermodynamic stability between forms (competitive slurry),[3],most stable

# — US11667632B2, “2-(1H-indazol-3-yl)-3H-imidazo[4,5-C]pyridines and their anti-inflammatory uses thereof” (BioSplice Therapeutics, Inc., priority 2015, dated 2023)
